The values that follow come from patent US7851606B2, “Negatively charged minor groove binders” (Elitech Holding B.V., priority 2002, dated 2010).

Data set [1] concerns complementary targets that contain A/C mismatch at positions 5, 6, 7 and 8. The experiment in a line: Mismatch discrimination of oligonucleotide conjugates 5′-CCAAAATTAC-X^11-3′ hybridized to complementary targets (Example 4). Type of data set: binding. As to conditions: for ΔΔG° between match and mismatch: calculated at 50° C. Here is the method:
This example illustrates conjugates of the present invention to perform mismatch discrimination.
Oligonucleotide conjugates 5′-CCAAAATTAC-X^11-3′ (SEQ ID NO:1), where X ^11 is a minor groove binder of FIG. 1, were hybridized to different complementary targets that contain A/C mismatch at positions 5, 6, 7 and 8, relative to the attached minor groove binder.
The relative free energy difference (ΔΔG°) between match and mismatch at positions 5, 6, 7 and 8 were calculated at 50° C. and are listed in Table below. The ΔΔG° values were calculated as described in U.S. application Ser. No. 09/796,988.
Table of ΔΔG° between match and mismatch calculated at 50° C. for different conjugates.

The subject of data set [2] is matched complement of ODN # 1. The data set can be described thus: Thermodynamic properties / mismatch discrimination of 3′-conjugated GGTTTTAATG-X″ sequences (Example 5, FIG. 2). Type of data set: binding. Conditions: C/A mismatch at positions 5, 6, 7 and 8; 50° C.; PCR buffer; oligonucleotide 5×10^−7M; in words. Here is the method:
Thermodynamic properties of 3′ -conjugated, where X″ represents the attached minor groove binder which is either CDPI3 (C), CDPI3 (N) and CDPI4-(SO3^−)2. The parameters were determined at PCR buffer, where the oligonucleotide concentration was 5×10^−7M. The sequences below were hybridized to matched complement of ODN # 1. The relative free energy difference (ΔΔG°) between match and mismatch at positions 5, 6, 7 and 8 were calculated at 50° C. and plotted in FIG. 2. The bold C base in the sequences indicates the position of the C/A mismatch.

{CDPI3-SO3} = negatively charged sulfonated CDPI3 minor groove binder; {CDPI4-(SO3)2} = disulfonated CDPI4 minor groove binder; {CDPI3(C)} = code of the source, not defined here; {CDPI3(N)} = code of the source, not defined here

With “CDPI3 (N): Oligonucleotide conjugate 5′-CCAAAATTAC-X^11-3′, X^11 being the minor groove binder CDPI3 (N) of FIG. 1 (3' {CDPI3(N)}, sugars by position and backbone not given here)”, the “ΔΔG° between match and mismatch” value was 5.28 kcal/mol in data set [1] (A/C mismatch position 5), 6.32 kcal/mol in data set [1] (A/C mismatch position 6), 5.55 kcal/mol in data set [1] (A/C mismatch position 7) and 5.51 kcal/mol in data set [1] (A/C mismatch position 8).
Turning to “CDPI4-(SO3^−)2: 3′-conjugated oligonucleotide GGTTTTAATG-X″, X″ being the attached minor groove binder CDPI4-(SO3^−)2 (3' {CDPI4-(SO3)2}, sugars by position and backbone not given here)”, the “mismatch discrimination (ΔΔG° plotted in FIG. 2)” value in data set [2] is on record as “comparable mismatch discrimination”.
Turning to “CDPI3 (C): Oligonucleotide conjugate 5′-CCAAAATTAC-X^11-3′, X^11 being the minor groove binder CDPI3 (C) of FIG. 1 (3' {CDPI3(C)}, sugars by position and backbone not given here)”, the “ΔΔG° between match and mismatch” value in data set [1] (A/C mismatch position 5) was 4.87 kcal/mol; in data set [1] (A/C mismatch position 6), 6.22 kcal/mol; in data set [1] (A/C mismatch position 7) it was 6.24 kcal/mol; in data set [1] (A/C mismatch position 8), 5.52 kcal/mol.
With “CDPI3—SO3^−: Oligonucleotide conjugate 5′-CCAAAATTAC-X^11-3′, X^11 being the negatively charged minor groove binder CDPI3-SO3^− of FIG. 1 (3' {CDPI3-SO3}, sugars by position and backbone not given here)”, the “ΔΔG° between match and mismatch” value in data set [1] (A/C mismatch position 5) is 4.26 kcal/mol; in data set [1] (A/C mismatch position 6), 5.16 kcal/mol; in data set [1] (A/C mismatch position 7) it was 5.55 kcal/mol; in data set [1] (A/C mismatch position 8) it was 4.32 kcal/mol. In addition, the “mismatch discrimination performance versus the other conjugates in the Table” value in data set [1] (in words) was “comparable to the other conjugates”.
